Experiments:
[1] = biological target: Recombinant human Syk (amino acids 342-635) (Homo sapiens (Human), UniProt P43405); experiment: Syk Kinase Test (Kinase Glo luminescence); type: biochemical; conditions: comparison compounds, Example numbers of WO 2013/014060; read-out: IC50 in μM (SYK-Inhibition)
Description: (§1) The output file of the reader is a csv file that contains the well number and measured relative light units (RLU). For data evaluation and calculation, the measurement of the negative control was set as 100% ctrl and the measurement of the positive control was set as 0% ctrl. Based on this values the % value for the measurement of each substance concentration was calculated using an Assay Explorer software (Accelrys). Normally, the % ctrl values calculated are between 0% and 100% values but may also occur outside these limits in individual cases based on variability or compound characteristics. The IC50 values were calculated from the % ctrl values using Assay Explorer software. Calculation: [y=(a−d)/(1+(x/c)^b)+d] a=low value, d=high value; x=conc M; c=IC50 M; b=hill; y=% ctrl.

[2] = biological target: Recombinant human Aurora B (amino acids 1-344) (Homo sapiens (Human), UniProt Q96GD4); experiment: Aurora B Kinase Test (ADP Glo luminescence); type: biochemical; conditions: comparison compounds, Example numbers of WO 2013/014060; read-out: IC50 in μM (AURB-Inhibition)
Sequence of Recombinant human Aurora B (amino acids 1-344) (Q96GD4 whole entry, the tested form may be a part): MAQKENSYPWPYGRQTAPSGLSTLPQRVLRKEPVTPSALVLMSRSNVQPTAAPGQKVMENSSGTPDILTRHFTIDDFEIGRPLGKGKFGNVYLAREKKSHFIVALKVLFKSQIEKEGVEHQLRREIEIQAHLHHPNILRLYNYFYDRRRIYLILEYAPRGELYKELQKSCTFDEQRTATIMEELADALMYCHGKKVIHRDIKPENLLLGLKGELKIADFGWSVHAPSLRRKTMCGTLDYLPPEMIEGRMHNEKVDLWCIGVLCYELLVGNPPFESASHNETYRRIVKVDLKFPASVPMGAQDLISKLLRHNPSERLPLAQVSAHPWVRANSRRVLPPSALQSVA
Description: The activity of the Aurora B kinase protein was determined using the ADP Glo® Luminescence Kinase test (Promega; V9103X).
Serial Dilution is done in 1:10 steps in 100% DMSO.
Then 20 μl Kinase detection mix (Detection Buffer #V913B Promega; Kinase Detection Substrate #V914B Promega) were added and incubated for 40 minutes at room temperature.
as §1, with “measured RLU.” for “measured relative light units (RLU).”, “as 0%” for “as 100%”, “as 100%” for “as 0%”, “Calculation: [y=(a−d)/(1+(x/c)^b)+d],” for “Calculation: [y=(a−d)/(1+(x/c)^b)+d]”

FLT3 = FLT3 (Homo sapiens (Human), UniProt P36888); experiment: FLT3 Kinase Test (Z'-LYTE); type: biochemical; conditions: comparison compounds, Example numbers of WO 2013/014060; read-out: IC50 in μM (FLT3-Inhibition)
Sequence of FLT3 (P36888 564-958): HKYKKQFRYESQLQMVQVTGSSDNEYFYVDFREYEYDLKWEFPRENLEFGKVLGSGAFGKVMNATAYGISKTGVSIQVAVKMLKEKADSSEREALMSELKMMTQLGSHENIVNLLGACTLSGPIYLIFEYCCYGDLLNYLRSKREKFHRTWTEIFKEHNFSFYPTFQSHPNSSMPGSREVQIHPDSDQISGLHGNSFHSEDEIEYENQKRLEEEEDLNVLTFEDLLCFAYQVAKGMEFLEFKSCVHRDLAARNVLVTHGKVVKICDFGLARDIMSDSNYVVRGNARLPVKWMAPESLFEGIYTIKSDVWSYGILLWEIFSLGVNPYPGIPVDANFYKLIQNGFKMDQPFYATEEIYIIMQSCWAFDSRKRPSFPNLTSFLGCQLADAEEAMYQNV
Description: The activity of FLT3 is measured using the Z′-LYTE™ assay technology from Invitrogen (#PV3191)
The reaction is started by addition of 2.5 μl of the 4×ATP solution.
(§2) Positive controls are reaction mixtures containing no test compound; negative controls (blanks) are reaction mixtures containing no kinase. As a further control, the phosphopeptide solution is added to wells without kinase (=100% phosphorylation control).
The reaction is performed for 1 h at room temperature before 5 μl of the development solution is added. After a further incubation for 1 h at room temperature 5 μl of the stop reagent is added.
The output text file is evaluated in an “MS-Excel-VB-Makro” and “GraphPadPrism” (Version 5) (GraphPad Software Inc.) is used to calculate the results. Data for the inhibition of FLT3 are reported in M. data for the inhibition of the protease are reported in % CTL.

Human GSK3beta = Human GSK3beta (Homo sapiens (Human), UniProt P49841); experiment: GSK 3β Kinase-Test (Z'-LYTE); type: biochemical; conditions: comparison compounds, Example numbers of WO 2013/014060; read-out: IC50 in μM (GSK3beta-Inhibition)
Sequence of Human GSK3beta (P49841 whole entry): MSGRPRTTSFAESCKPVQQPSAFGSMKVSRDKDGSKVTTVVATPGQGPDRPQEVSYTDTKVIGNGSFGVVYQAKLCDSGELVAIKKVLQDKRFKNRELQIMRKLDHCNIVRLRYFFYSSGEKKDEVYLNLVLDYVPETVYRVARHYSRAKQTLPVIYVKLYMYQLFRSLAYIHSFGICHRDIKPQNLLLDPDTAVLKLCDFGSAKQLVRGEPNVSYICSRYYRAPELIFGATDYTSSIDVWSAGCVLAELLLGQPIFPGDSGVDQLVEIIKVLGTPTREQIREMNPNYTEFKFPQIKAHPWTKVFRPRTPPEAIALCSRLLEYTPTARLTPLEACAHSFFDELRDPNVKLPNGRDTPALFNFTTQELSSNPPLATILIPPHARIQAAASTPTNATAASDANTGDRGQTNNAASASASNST
Description: Human GSK3beta (expressed and prified from SF21 cells) is obtained from the University Dundee/Scotland (Dr. James Hastie—Dept. of Biochemistry) in 50 mM Tris (pH7.5); 150 mM NaCl; 0.1 mM EGTA, 270 mM Succrose, 0.1% B-mercaptoethanol, 1 mM benzamidine, 0.2 mM PMSF; sequence see below). The enzyme is diluted to 3.56 μM (168 μg/ml) in enzyme dilution buffer and 6 μl aliquots are stored at −80° C.
The activity of GSK3 kinase protein is measured using the Z′-LYTE™ assay technology from Invitrogen (# PV3324).
The assay is performed in 384 black plates from Corning (#3676) in a final volume of 10 μl by adding 5 μl of kinase peptide mix and 2.5 μl of compound dilution. The reaction is started by addition of 2.5 μl of the 4×ATP solution.
as §2, with “ATP.” for “kinase.”, “kinase and without ATP” for “kinase”, “control). The non inhibited kinase reaction will result in a phosphorylation corresponding to 20%-30% of the phosphorylation control.” for “control).”
The reaction is performed 1 h at room temperature. After 1 h 5 μl of the development solution is added. After a further incubation for 1 h at room temperature 5 μl of the stop reagent is added. Finally the plates are read on a Flex Station II 384 (Molecular Devices).
The output text file is evaluated in an “MS-Excel-VB-Makro” and “GraphPadPrism” (Version 5) (GraphPad Software Inc.) is used to calculate the results. Data for the inhibition of GSK3beta are reported in M. data for the inhibition of the protease are reported in % CTL.

[3] = Human Liver Microsomal Stability Test; type: in vitro ADME; conditions: human liver microsomes; comparison compounds, Example numbers of WO 2013/014060
Description: The metabolic degradation for a specific SYK-inhibitor is performed at 37° C. with pooled human liver microsomes (human liver microsomes are commercially available as “BD UltraPool™” by Corning Life Sciences, Fogostraat 12, 1060 LJ Amsterdam, The Netherlands). The final incubation volume of 100 μl per time point contains TRIS buffer pH 7.6 at RT (0.1 M), magnesium chloride (5 mM), microsomal protein (1 mg/ml) and the test compound at a final concentration of 1 μM.
Following a short preincubation period at 37° C., the reaction is initiated by addition of beta-nicotinamide adenine dinucleotide phosphate in its reduced form (NADPH, 1 mM) and terminated by transfering an aliquot into solvent after different time points. Additionally, the NADPH-independent degradation is monitored in incubations without NADPH, terminated at the last time point.
The quenched (terminated) incubations are then pelleted by centrifugation (10000 g, 5 min).
An aliquot of the supernatant is assayed by LC-MS/MS for the remaining amount of parent compound. The half-life (t½ INVITRO) is determined by the slope of the semilogarithmic plot of the concentration-time profile.
The intrinsic clearance (CL_[…]) is calculated by considering the amount of protein in the incubation: CL_[…] [μl/min/mg protein]=(Ln 2/(t½INVITRO [min]*protein content [mg/ml]))*1000
The protein content [mg/ml] was determined with the “Bicinchoninic Acid Kit” of Sigma Aldrich (commercially available).
The upscaled intrinsic Clearance (CL_UP_INT) is calcuated by considering the liver weight [g liver/kg body weight] and the microsomal recovery [mg protein/g liver]: CL_UP_INT [ml/min/kg]=0.001*CL_[…]*liver weight*microsomal recovery • with microsomal recovery=45 mg protein/g liver • with liver weight=25.7 g liver/kg body weight
The percent hepatic blood flow (% Qh) is finally calculated by considering the human liver blood flow Q [ml/min/kg]: % Qh [%]=((Q*CL_UP_INT)/(Q+CL_UP_INT)/Q)*100 • with liver blood flow (Q)=20.7 ml/min/kg.

IC50 [1] [µM]	IC50 [2] [µM]	IC50 (FLT3) [µM]	IC50 (Human GSK3beta) [µM]	microsomal stability Cl [% Qh] [3] [% Qh]	Compound
0.002	0.752	0.738	> 10	24	C[C@@H](Oc1nc(-c2cc3nn(C)cc3c(O[C@H](C)[C@H]3CNC(=O)C3)n2)cc2nn(C)cc12)[C@@H]1CNC(=O)C1 [Example 11, (4S)-4-[(1R)-1-[2-methyl-6-[2-methyl-4-[(1R)-1-[(3R)-5-oxopyrrolidin-3-yl]ethoxy]-pyrazolo[4,3-c]pyridin-6-yl]pyrazolo[4,3-c]pyridin-4-yl]oxyethyl]pyrrolidin-2-one]
0.006	2.96	1.25	> 10	<23	Cc1c(-c2cc(O[C@H](C)[C@H]3CNC(=O)C3)c3cccnc3c2)cnn1C [compound 112]
0.0002	0.021	0.041	> 10	<23	CC(C)n1cc(-c2cc(O[C@H](C)[C@H]3CNC(=O)C3)c3cccnc3c2)cn1 [compound 115]

Reference: patent US10947243B2, “Heteroaryl SYK inhibitors” (Boehringer Ingelheim International GmbH, priority 2014, dated 2021)
